Measurements: publication PMC10023787, “Trio-pharmacophore DNA-encoded chemical library for simultaneous selection of fragments and linkers” (Nature Communications, 2023)
Where two headings read alike, the source gives them in different places. One block for each molecule: values may come before it.

How the values were obtained:
[1] = molecular target: T1, MMP-2 (Homo sapiens, UniProt P08253); experiment: MMP-2 inhibition assay (fluorogenic peptide substrate); type: biochemical; conditions: for remaining activity (%): MMP-2; for IC50: n.d: not detected
T1 construct: purchased Sino Biological 10082-HNAH
T1 sequence (P08253 110-660): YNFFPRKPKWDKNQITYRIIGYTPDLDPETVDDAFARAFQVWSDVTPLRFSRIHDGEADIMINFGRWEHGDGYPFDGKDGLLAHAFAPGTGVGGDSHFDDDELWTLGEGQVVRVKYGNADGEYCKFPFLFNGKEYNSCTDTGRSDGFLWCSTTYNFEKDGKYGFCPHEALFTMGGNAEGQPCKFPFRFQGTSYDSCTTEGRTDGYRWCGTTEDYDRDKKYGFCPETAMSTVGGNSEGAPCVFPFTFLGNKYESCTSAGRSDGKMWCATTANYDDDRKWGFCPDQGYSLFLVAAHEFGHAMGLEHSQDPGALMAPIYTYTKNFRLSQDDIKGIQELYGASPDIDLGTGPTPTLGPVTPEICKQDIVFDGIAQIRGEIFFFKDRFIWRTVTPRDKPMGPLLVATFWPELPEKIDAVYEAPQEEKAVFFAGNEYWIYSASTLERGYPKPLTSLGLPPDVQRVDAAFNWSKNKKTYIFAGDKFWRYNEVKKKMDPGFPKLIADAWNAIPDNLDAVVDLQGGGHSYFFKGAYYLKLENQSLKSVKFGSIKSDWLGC
Procedure: (§1) The inhibition by the small molecule compounds against MMP-2/MMP-9 was measured using an assay probing the enzyme proteolytic activity on the substrate DNP-Pro-Leu-Gly-Met-Trp-Ser-Arg (Enzo Life Sciences, USA). All assays were performed in the assay buffer containing 50 mM Tris, 100 mM NaCl. 5 mM CaCl2, and 0.1% Brij 35, pH 7.5. Human proMMP-2 and proMMP-9 were purchased from Sino biological (Germany). The proMMPs were activated by 1 mM APMA in the assay buffer at 37 °C for 2 h. After activation, MMP-2 was diluted to 6.5 nM of final assay concentration, and MMP-9 was diluted by the buffer to reach 10 nM of final assay concentration. In each well, 49 μl of enzyme solution was incubated with 1 μl of compounds of series of concentration (nM-mM in DMSO) at RT for 30 min. 2 μl of the FRET substrate was added right before the measurement at a final concentration of 25 μM. The rate of hydrolysis was monitored by quantifying the emission at 360 nm (ex: 280 nm). The emission was measured with intervals of the 30 s for 30 min with Synergy H1 Plate Reader (Agilent, USA). The measurements were done in triplicate. […] Then, curves were plotted as a function of the concentration of the inhibitor against the relative enzyme activity. Vmax was derived from the detected […] signal for each concentration and logistic fitting was performed to obtain IC50 values using Origin 2019b (OriginLab).

[2] = molecular target: T2, MMP-9 (Homo sapiens, UniProt P14780); experiment: MMP-9 inhibition assay (fluorogenic peptide substrate); type: biochemical; parameters: remaining enzyme activity (% of control): scale not given here; conditions: for remaining enzyme activity (% of control): MMP-9; for IC50: n.d: not detected
T2 construct: purchased Sino Biological 10327-HNAH
T2 sequence (P14780 107-707 limits assumed): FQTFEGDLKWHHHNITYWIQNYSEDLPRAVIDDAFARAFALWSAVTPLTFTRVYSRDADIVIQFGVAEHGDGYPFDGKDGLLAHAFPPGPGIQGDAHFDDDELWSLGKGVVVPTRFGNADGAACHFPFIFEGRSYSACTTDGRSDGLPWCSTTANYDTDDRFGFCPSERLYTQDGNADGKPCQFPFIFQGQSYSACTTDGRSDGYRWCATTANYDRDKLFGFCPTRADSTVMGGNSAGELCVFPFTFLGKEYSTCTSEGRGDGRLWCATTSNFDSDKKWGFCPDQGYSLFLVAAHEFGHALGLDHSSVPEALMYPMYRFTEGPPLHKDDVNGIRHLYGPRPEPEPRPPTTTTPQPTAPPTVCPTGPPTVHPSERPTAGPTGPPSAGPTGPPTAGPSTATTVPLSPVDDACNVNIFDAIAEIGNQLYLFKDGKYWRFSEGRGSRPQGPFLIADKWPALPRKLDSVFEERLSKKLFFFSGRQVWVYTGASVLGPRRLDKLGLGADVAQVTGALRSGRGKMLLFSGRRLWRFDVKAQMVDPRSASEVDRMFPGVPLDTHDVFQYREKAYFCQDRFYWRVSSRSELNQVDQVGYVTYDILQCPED
Procedure: as §1

[3] = mean ± SE, Fig. 5d unit inferred, µM, read-out: IC50
[4] = Figure 5d, fragment combination joined by linker, read-out: MMP2 IC50
[5] = Figure 5d, fragment combination joined by linker, read-out: MMP9 IC50

Structure (SMILES): O=C(CNC(=O)NC12CC3CC(CC(C3)C1)C2)NCc1c[nH]nn1 [66+787 Linker 1]
remaining activity (%) ([1]; concentration 0.0156 µM): 93.33
remaining activity (%) ([1]; concentration 0.08 µM): 91.88
remaining activity (%) ([1]; concentration 0.39 µM): 89.28
remaining activity (%) ([1]; concentration 1.95 µM): 98.93
remaining activity (%) ([1]; concentration 9.75 µM): 95.17
remaining activity (%) ([1]; concentration 48.76 µM): 89.24
remaining activity (%) ([1]; concentration 243.80 µM): 91.48
remaining activity (%) ([1]; concentration 1219.00 µM): 64.77
remaining enzyme activity (% of control) ([2]; concentration 0.08 µM): 90.03
remaining enzyme activity (% of control) ([2]; concentration 0.39 µM): 107.83
remaining enzyme activity (% of control) ([2]; concentration 1.95 µM): 106.33
remaining enzyme activity (% of control) ([2]; concentration 9.75 µM): 95.98
remaining enzyme activity (% of control) ([2]; concentration 48.76 µM): 92.70
remaining enzyme activity (% of control) ([2]; concentration 243.80 µM): 85.14
remaining enzyme activity (% of control) ([2]; concentration 1219.00 µM): 78.29

Structure (SMILES): O=C(CCCCCCC(=O)NCC12CC3CC(CC(C3)C1)C2)NCc1c[nH]nn1 [66+787 Linker 4]
remaining activity (%) ([1]; concentration 0.0156 µM): 93.57
remaining activity (%) ([1]; concentration 0.08 µM): 87.26
remaining activity (%) ([1]; concentration 0.39 µM): 84.29
remaining activity (%) ([1]; concentration 1.95 µM): 79.19
remaining activity (%) ([1]; concentration 9.75 µM): 76.03
remaining activity (%) ([1]; concentration 48.76 µM): 60.10
remaining activity (%) ([1]; concentration 243.80 µM): 68.09
remaining activity (%) ([1]; concentration 1219.00 µM): 72.50
remaining enzyme activity (% of control) ([2]; concentration 0.08 µM): 101.70
remaining enzyme activity (% of control) ([2]; concentration 0.39 µM): 95.25
remaining enzyme activity (% of control) ([2]; concentration 1.95 µM): 95.00
remaining enzyme activity (% of control) ([2]; concentration 9.75 µM): 100.64
remaining enzyme activity (% of control) ([2]; concentration 48.76 µM): 91.07
remaining enzyme activity (% of control) ([2]; concentration 243.80 µM): 93.01
remaining enzyme activity (% of control) ([2]; concentration 1219.00 µM): 79.78

Structure (SMILES): O=C(CCC(=O)NCc1c[nH]nn1)NCCOCCOCCNC(=O)CNC(=O)NC12CC3CC(CC(C3)C1)C2 [66+787 Linker 10]
remaining activity (%) ([1]; concentration 0.07 µM): 89.74
remaining activity (%) ([1]; concentration 0.33 µM): 85.09
remaining activity (%) ([1]; concentration 1.67 µM): 89.74
remaining activity (%) ([1]; concentration 8.34 µM): 82.52
remaining activity (%) ([1]; concentration 41.72 µM): 81.27
remaining activity (%) ([1]; concentration 208.60 µM): 74.95
remaining activity (%) ([1]; concentration 1043.00 µM): 25.65
remaining activity (%) ([1]; concentration […]): 97.97
IC50 [1, 3]: 578 ± 96 µM
remaining enzyme activity (% of control) ([2]; concentration 0.07 µM): 99.26
remaining enzyme activity (% of control) ([2]; concentration 0.33 µM): 98.95
remaining enzyme activity (% of control) ([2]; concentration 1.67 µM): 95.42
remaining enzyme activity (% of control) ([2]; concentration 8.34 µM): 94.84
remaining enzyme activity (% of control) ([2]; concentration 41.72 µM): 86.90
remaining enzyme activity (% of control) ([2]; concentration 208.60 µM): 67.40
remaining enzyme activity (% of control) ([2]; concentration 1043.00 µM): 51.64

Structure (SMILES): O=C(/C=C/CCCCC(=O)NCc1c[nH]nn1)CC(=O)NCC12CC3CC(CC(C3)C1)C2 [66+787 Linker 12]
remaining activity (%) ([1]; concentration 0.0111 µM): 95.55
remaining activity (%) ([1]; concentration 0.0553 µM): 86.42
remaining activity (%) ([1]; concentration 0.28 µM): 84.28
remaining activity (%) ([1]; concentration 1.38 µM): 96.70
remaining activity (%) ([1]; concentration 6.91 µM): 90.43
remaining activity (%) ([1]; concentration 34.57 µM): 98.71
remaining activity (%) ([1]; concentration 172.86 µM): 67.90
remaining activity (%) ([1]; concentration 864.30 µM): 16.96
IC50 [1, 3]: 339 ± 63.3 µM
remaining enzyme activity (% of control) ([2]; concentration 0.0553 µM): 94.85
remaining enzyme activity (% of control) ([2]; concentration 0.28 µM): 91.07
remaining enzyme activity (% of control) ([2]; concentration 1.38 µM): 90.00
remaining enzyme activity (% of control) ([2]; concentration 6.91 µM): 80.21
remaining enzyme activity (% of control) ([2]; concentration 34.57 µM): 81.44
remaining enzyme activity (% of control) ([2]; concentration 172.86 µM): 37.12
remaining enzyme activity (% of control) ([2]; concentration 864.30 µM): 14.22
IC50 ([2]; mean ± SE, Fig. 5e prints no unit, µM, read-out: IC50): 115 ± 78.3 µM

Structure (SMILES): O=C(CNC(=O)NC12CC3CC(CC(C3)C1)C2)NCCSCC(=O)NCc1c[nH]nn1 [66+787 Linker 24]
remaining activity (%) ([1]; concentration 0.0156 µM): 107.17
remaining activity (%) ([1]; concentration 0.08 µM): 100.74
remaining activity (%) ([1]; concentration 0.39 µM): 89.54
remaining activity (%) ([1]; concentration 1.95 µM): 101.35
remaining activity (%) ([1]; concentration 9.75 µM): 92.40
remaining activity (%) ([1]; concentration 48.76 µM): 87.86
remaining activity (%) ([1]; concentration 243.80 µM): 72.74
remaining activity (%) ([1]; concentration 1219.00 µM): 41.09
IC50 [1, 3]: 861 ± 97.2 µM
remaining enzyme activity (% of control) ([2]; concentration 0.08 µM): 99.22
remaining enzyme activity (% of control) ([2]; concentration 0.39 µM): 101.28
remaining enzyme activity (% of control) ([2]; concentration 1.95 µM): 105.60
remaining enzyme activity (% of control) ([2]; concentration 9.75 µM): 109.06
remaining enzyme activity (% of control) ([2]; concentration 48.76 µM): 90.00
remaining enzyme activity (% of control) ([2]; concentration 243.80 µM): 81.70
remaining enzyme activity (% of control) ([2]; concentration 1219.00 µM): 47.95

Structure (SMILES): Cn1c(O)nc2cc(C(=O)NCC34CC5CC(CC(C5)C3)C4)cnc21 [66+826 Linker 1]
remaining activity (%) ([1]; concentration 0.12 µM): 104.18
remaining activity (%) ([1]; concentration 0.49 µM): 97.92
remaining activity (%) ([1]; concentration 1.95 µM): 99.61
remaining activity (%) ([1]; concentration 7.81 µM): 91.81
remaining activity (%) ([1]; concentration 31.25 µM): 84.92
remaining activity (%) ([1]; concentration 125.00 µM): 90.24
remaining activity (%) ([1]; concentration 500.00 µM): 77.04
remaining enzyme activity (% of control) ([2]; concentration 0.12 µM): 90.98
remaining enzyme activity (% of control) ([2]; concentration 0.49 µM): 79.87
remaining enzyme activity (% of control) ([2]; concentration 1.95 µM): 80.91
remaining enzyme activity (% of control) ([2]; concentration 7.81 µM): 80.18
remaining enzyme activity (% of control) ([2]; concentration 31.25 µM): 77.01
remaining enzyme activity (% of control) ([2]; concentration 125.00 µM): 59.34
remaining enzyme activity (% of control) ([2]; concentration 500.00 µM): 44.40

Structure (SMILES): Cn1c(O)nc2cc(C(=O)NCCCCCCCCNC(=O)CNC(=O)NC34CC5CC(CC(C5)C3)C4)cnc21 [66+826 Linker 4]
remaining activity (%) ([1]; concentration 0.12 µM): 90.87
remaining activity (%) ([1]; concentration 0.49 µM): 97.75
remaining activity (%) ([1]; concentration 1.95 µM): 98.21
remaining activity (%) ([1]; concentration 7.81 µM): 97.67
remaining activity (%) ([1]; concentration 31.25 µM): 98.57
remaining activity (%) ([1]; concentration 125.00 µM): 99.42
remaining activity (%) ([1]; concentration 500.00 µM): 77.03
remaining enzyme activity (% of control) ([2]; concentration 0.12 µM): 93.59
remaining enzyme activity (% of control) ([2]; concentration 0.49 µM): 93.14
remaining enzyme activity (% of control) ([2]; concentration 1.95 µM): 89.16
remaining enzyme activity (% of control) ([2]; concentration 7.81 µM): 98.12
remaining enzyme activity (% of control) ([2]; concentration 31.25 µM): 95.00
remaining enzyme activity (% of control) ([2]; concentration 125.00 µM): 90.00
remaining enzyme activity (% of control) ([2]; concentration 500.00 µM): 85.00

Other lines, results leading:

IC50 [1, 4]: 578 µM
Structure (SMILES): O=C(CCC(=O)NCc1c[nH]nn1)NCCOCCOCCNC(=O)CNC(=O)NC12CC3CC(CC(C3)C1)C2 [66_787 10]

IC50 [1, 4]: 861 µM
Structure (SMILES): O=C(CNC(=O)NC12CC3CC(CC(C3)C1)C2)NCCSCC(=O)NCc1c[nH]nn1 [66_787 24]

IC50 [2, 5]: 234 µM
Structure (SMILES): Cn1c(O)nc2cc(C(=O)NCC34CC5CC(CC(C5)C3)C4)cnc21 [66_826 1]

IC50 [2, 5]: 247 µM
Structure (SMILES): O=C(CNC(=O)NC12CC3CC(CC(C3)C1)C2)NCCCCCCCCNC(=O)c1cncc(O)c1 [66_828 4]

IC50 [1, 4]: 439 µM
Structure (SMILES): Cn1c(O)nc2cc(C(=O)NCCCCCCCCNC(=O)Cn3cnc4c(oc5ccccc54)c3=O)cnc21 [182_826 4]

IC50 [2, 5]: 283 µM
Structure (SMILES): Cn1c(O)nc2cc(C(=O)NCCOCCOCCNC(=O)Cn3cnc4c(oc5ccccc54)c3=O)cnc21 [182_826 10]

IC50 [2, 5]: 281 µM
Structure (SMILES): Cn1c(O)nc2cc(C(=O)NCCNC(=O)CSCCNC(=O)Cn3cnc4c(oc5ccccc54)c3=O)cnc21 [182_826 24]
